Measured values: US8993616B2, “(aza)indole derivative and use thereof for medical purposes” (Kissei Pharmaceutical Co., Ltd., priority 2007, dated 2015)

Biological target: Xanthine oxidase (from bovine milk, Sigma) (Bos taurus (Bovine), UniProt P80457)
Experiment: Xanthine oxidase inhibitory activity
Assay type: biochemical
Details: xanthine substrate, 10 minutes at room temperature, absorbance at 290 nm
Procedure: (1) Preparation of Test Compounds
Test compounds were dissolved in DMSO (Wako) at 40 mM concentration and then diluted to intended concentrations with phosphate-buffered saline (PBS).
(2) Method for Measurement
Xanthine oxidase (from bovine milk, Sigma) was prepared with phosphate-buffered saline (PBS) at 0.02 units/mL, and then the solution was added to 96 well plates at 50 μL/well. In addition, test compounds diluted with PBS were added at 50 μL/well. Xanthine (Wako) at 200 μM prepared with PBS was added at 100 μL/well, and the reaction was conducted for 10 minutes at room temperature. Absorbance at 290 nm was measured using a microplate reader SpectraMax Plus 384 (Molecular device). The absorbance under a condition without xanthine is 0%, and control without test compounds is 100%. Fifty % inhibitory concentration of a test compound (IC50) was calculated (Table 60). Ex. No in the table indicates Example number.

Xanthine oxidase (from bovine milk, Sigma), sequence (P80457 whole entry): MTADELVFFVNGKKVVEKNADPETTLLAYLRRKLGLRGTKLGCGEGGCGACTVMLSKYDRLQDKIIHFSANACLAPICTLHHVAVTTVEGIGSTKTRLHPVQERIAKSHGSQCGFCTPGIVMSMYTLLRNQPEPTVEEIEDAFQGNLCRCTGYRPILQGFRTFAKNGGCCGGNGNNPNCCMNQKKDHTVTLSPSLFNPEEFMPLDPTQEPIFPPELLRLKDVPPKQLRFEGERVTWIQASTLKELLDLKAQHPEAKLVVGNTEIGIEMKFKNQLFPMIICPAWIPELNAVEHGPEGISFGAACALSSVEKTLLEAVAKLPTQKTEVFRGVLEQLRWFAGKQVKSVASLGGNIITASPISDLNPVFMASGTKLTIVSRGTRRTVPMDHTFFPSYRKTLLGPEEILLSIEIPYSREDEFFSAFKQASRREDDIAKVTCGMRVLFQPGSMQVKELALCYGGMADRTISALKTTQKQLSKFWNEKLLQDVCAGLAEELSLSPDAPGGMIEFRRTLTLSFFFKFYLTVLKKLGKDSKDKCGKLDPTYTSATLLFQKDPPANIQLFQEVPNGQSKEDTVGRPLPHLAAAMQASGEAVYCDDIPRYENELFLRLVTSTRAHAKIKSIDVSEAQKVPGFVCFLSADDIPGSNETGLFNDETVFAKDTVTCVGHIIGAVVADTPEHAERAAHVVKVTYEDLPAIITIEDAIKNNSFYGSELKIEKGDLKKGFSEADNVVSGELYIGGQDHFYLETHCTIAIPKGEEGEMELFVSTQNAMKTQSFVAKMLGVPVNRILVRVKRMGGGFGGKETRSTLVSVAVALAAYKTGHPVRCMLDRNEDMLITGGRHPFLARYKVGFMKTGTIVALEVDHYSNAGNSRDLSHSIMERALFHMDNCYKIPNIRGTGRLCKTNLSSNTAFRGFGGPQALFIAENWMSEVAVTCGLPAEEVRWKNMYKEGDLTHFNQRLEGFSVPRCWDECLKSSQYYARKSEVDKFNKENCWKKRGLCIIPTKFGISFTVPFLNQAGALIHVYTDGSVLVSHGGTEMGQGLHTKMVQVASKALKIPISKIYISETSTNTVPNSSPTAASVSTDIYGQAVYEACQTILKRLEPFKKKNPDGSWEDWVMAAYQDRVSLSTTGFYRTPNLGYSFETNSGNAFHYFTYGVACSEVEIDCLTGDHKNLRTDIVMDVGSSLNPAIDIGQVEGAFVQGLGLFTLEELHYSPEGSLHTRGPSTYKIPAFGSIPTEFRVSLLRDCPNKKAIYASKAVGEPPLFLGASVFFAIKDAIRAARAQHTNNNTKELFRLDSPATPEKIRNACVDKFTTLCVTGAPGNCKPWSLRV

| Compound | IC50 [nM] |
| --- | --- |
| N#Cc1cn(-c2ccc(C(=O)O)c(O)c2)c2cc(OCc3ccccc3)ccc12 [Example 5, 4-(6-Benzyloxy-3-cyanoindol-1-yl)-2-hydroxybenzoic acid] | 33.6 |
| N#Cc1cn(-c2ccc(C(=O)O)c(O)c2)c2cc(OCCNC(=O)OCc3ccccc3)ccc12 [Example 8, 4-[6-(2-Benzyloxycarbonylaminoethyloxy)-3-cyanoindol-1-yl]-2-hydroxybenzoic acid] | 41.5 |
| N#Cc1cn(-c2ccc(C(=O)O)c(O)c2)c2cc(OCCN)ccc12 [Example 9, 4-[6-(2-Aminoethyloxy)-3-cyanoindol-1-yl]-2-hydroxybenzoic acid] | 12.5 |
| CC(=O)NCCOc1ccc2c(C#N)cn(-c3ccc(C(=O)O)c(O)c3)c2c1 [Example 12, 4-[6-(2-Acetylaminoethyloxy)-3-cyanoindol-1-yl]-2-hydroxybenzoic acid] | 7 |
| COc1ccc(-c2ccc3c(c2)c(C#N)cn3-c2ccc(C(=O)O)cc2)cc1 [Example 15, 4-[3-Cyano-5-(4-methoxyphenyl)indol-1-yl]benzoic acid] | 15.5 |
| N#Cc1cn(-c2ccc(C(=O)O)cc2)c2ccc(/C=C/C(=O)O)cc12 [Example 17, 4-[5-((E)-2-Carboxyvinyl)-3-cyanoindol-1-yl]benzoic acid] | 12.1 |
| N#Cc1cn(-c2ccc(C(=O)O)cc2)c2cccc(OCc3ccccc3)c12 [Example 19, 4-(4-Benzyloxy-3-cyanoindol-1-yl)benzoic acid] | 96 |
| N#Cc1cn(-c2ccc(C(=O)O)cc2)c2ccc(OCc3cccs3)cc12 [Example 27, 4-[3-Cyano-5-(thiophen-2-ylmethyloxy)indol-1-yl]benzoic acid] | 14.6 |
| N#Cc1cn(-c2ccc(C(=O)O)cc2)c2ccc(C(=O)O)cc12 [Example 29, 4-(5-Carboxy-3-cyanoindol-1-yl)benzoic acid] | 43.3 |
| N#Cc1cn(-c2ccc(C(=O)O)cc2)c2ccc(CO)cc12 [Example 32, 4-(3-Cyano-5-hydroxymethylindol-1-yl)benzoic acid] | 91.1 |
| CN(C)C(=O)c1ccc2c(c1)c(C#N)cn2-c1ccc(C(=O)O)cc1 [Example 34, 4-(3-Cyano-5-dimethylaminocarbonylindol-1-yl)benzoic acid] | 48.3 |
| N#Cc1cn(-c2ccc(C(=O)O)c(N)c2)c2ccccc12 [Example 42, 2-Amino-4-(3-cyanoindol-1-yl)benzoic acid] | 175 |
| Cc1nc(-n2cc(C#N)c3ccccc32)sc1C(=O)O [Example 47, 2-(3-Cyanoindol-1-yl)-4-methylthiazole-5-carboxylic acid] | 58.6 |
| Cc1ccc2c(c1)c(C#N)cn2-c1ccc(C(=O)O)cn1 [Example 143] | 24.4 |
| Cc1cc2c(cc1OCc1ccccc1)c(C#N)cn2-c1ccc(C(=O)O)cc1 [Example 149] | 38 |
| N#Cc1cn(-c2ccc(C(=O)O)cc2)c2ccc(-c3ccccc3)cc12 [Example 150] | 20.6 |
| N#Cc1cn(-c2ccc(C(=O)O)cc2)c2ccc(OCc3ccccc3)cc12 [Example 151] | 22.4 |
| N#Cc1cn(-c2ccc(C(=O)O)cc2)c2ccc(O)cc12 [Example 152] | 15.8 |
| COCCOc1ccc2c(c1)c(C#N)cn2-c1ccc(C(=O)O)cc1 [Example 153] | 12.2 |
| N#Cc1cn(-c2ccc(C(=O)O)cc2)c2ccc(OCCOc3ccccc3)cc12 [Example 154] | 19 |
| N#Cc1cn(-c2ccc(C(=O)O)cc2)c2cc(-c3ccccc3)ccc12 [Example 155] | 112 |
| COc1cccc(-c2ccc3c(c2)c(C#N)cn3-c2ccc(C(=O)O)cc2)c1 [Example 156] | 11.9 |
| COc1ccccc1-c1ccc2c(c1)c(C#N)cn2-c1ccc(C(=O)O)cc1 [Example 157] | 14.1 |
| N#Cc1cn(-c2ccc(C(=O)O)cc2)c2ccc(-c3cccs3)cc12 [Example 158] | 9.5 |
| N#Cc1cn(-c2ccc(C(=O)O)cc2)c2ccc(-c3ccncc3)cc12 [Example 159] | 14.4 |
| N#Cc1cn(-c2ccc(C(=O)O)cc2)c2ccc(C(=O)NCc3ccccc3)cc12 [Example 160] | 11.3 |
| CN(Cc1ccccc1)C(=O)c1ccc2c(c1)c(C#N)cn2-c1ccc(C(=O)O)cc1 [Example 161] | 49.8 |

| Compound | IC50 [nM] |
| --- | --- |
| COCCNC(=O)c1ccc2c(c1)c(C#N)cn2-c1ccc(C(=O)O)cc1 [Example 162] | 16.5 |
| CN(C)c1ccc(-c2ccc3c(c2)c(C#N)cn3-c2ccc(C(=O)O)cc2)cc1 [Example 165] | 111 |
| CC(=O)c1ccc(-c2ccc3c(c2)c(C#N)cn3-c2ccc(C(=O)O)cc2)cc1 [Example 166] | 7.2 |
| CS(=O)(=O)c1ccc(-c2ccc3c(c2)c(C#N)cn3-c2ccc(C(=O)O)cc2)cc1 [Example 167] | 10.9 |
| N#Cc1cn(-c2ccc(C(=O)O)cc2)c2ccc(OCC(=O)O)cc12 [Example 170] | 20 |
| N#Cc1cn(-c2ccc(C(=O)O)cc2)c2ccc(OCCO)cc12 [Example 171] | 10.9 |
| N#Cc1cn(-c2ccc(C(=O)O)cc2)c2ccc(OCCCO)cc12 [Example 172] | 8 |
| CCOCCOc1ccc2c(c1)c(C#N)cn2-c1ccc(C(=O)O)cc1 [Example 174] | 24.4 |
| N#Cc1cn(-c2ccc(C(=O)O)cc2)c2ccc(OCCOCc3ccccc3)cc12 [Example 175] | 22.2 |
| N#Cc1cn(-c2ccc(C(=O)O)cc2)c2ccc(OCc3ccsc3)cc12 [Example 176] | 18.3 |
| CN(C)CCCOc1ccc2c(c1)c(C#N)cn2-c1ccc(C(=O)O)cc1 [Example 177] | 16.4 |
| CS(=O)(=O)c1ccc(COc2ccc3c(c2)c(C#N)cn3-c2ccc(C(=O)O)cc2)cc1 [Example 178] | 12.9 |
| N#Cc1cn(-c2ccc(C(=O)O)cc2)c2ccc(-c3ccc(O)c(Cl)c3)cc12 [Example 179] | 8 |
| CC(C)(C)OC(=O)NCCCOc1ccc2c(c1)c(C#N)cn2-c1ccc(C(=O)O)cc1 [Example 180] | 29 |
| N#Cc1cn(-c2ccc(C(=O)O)cc2)c2ccc(OCCCN)cc12 [Example 181] | 17.2 |
| CS(=O)(=O)Nc1ccc2c(c1)c(C#N)cn2-c1ccc(C(=O)O)cc1 [Example 182] | 16.3 |
| CS(=O)(=O)Nc1ccc(-c2ccc3c(c2)c(C#N)cn3-c2ccc(C(=O)O)cc2)cc1 [Example 183] | 7.5 |
| N#Cc1cn(-c2ccc(C(=O)O)cc2)c2cc(CO)ccc12 [Example 184] | 138 |
| COCCOc1ccc2c(C#N)cn(-c3ccc(C(=O)O)cc3)c2c1 [Example 185] | 40.2 |
| N#Cc1cn(-c2ccc(C(=O)O)cc2)c2cc(OCCO)ccc12 [Example 186] | 49.7 |
| Cc1ccc2c(c1)c(C#N)cn2-c1nc(C)c(C(=O)O)s1 [Example 187] | 16.4 |
| Cc1ccc2c(c1)c(C#N)cn2-c1ccc(C(=O)O)c(O)c1 [Example 189] | 13.9 |
| N#Cc1cn(-c2ccc(C(=O)O)c(O)c2)c2cc(Cl)ccc12 [Example 190] | 5.4 |
| N#Cc1cn(-c2ccc(C(=O)O)c(O)c2)c2cc(C(F)(F)F)ccc12 [Example 195] | 14.5 |
| COc1ccc2c(c1)c(C#N)cn2-c1ccc(C(=O)O)c(O)c1 [Example 196] | 6.7 |
| N#Cc1cn(-c2ccc(C(=O)O)c(O)c2)c2ccc(Cl)cc12 [Example 197] | 9 |
| N#Cc1cn(-c2ccc(C(=O)O)c(O)c2)c2ccc(-c3ccccc3)cc12 [Example 198] | 54.6 |
